Reference: ChEMBL document CHEMBL4840313, “Bioisosteric replacements of the indole moiety for the development of a potent and selective PI3Kδ inhibitor: Design, synthesis and biological evaluation” (Eur J Med Chem, 2021)
pIC50: −log10 of the molar value.

Columns and labels:
[1] = Acute toxicity in ICR mouse assessed as damage in lung at 90 mg/kg, po measured after 7 days by H&E staining based immunohistochemistry; type: organism-based; settings: in vivo, 168 h, time 7 day
[2] = AUC (0 to infinity) in Sprague-Dawley rat at 10 mg/kg, po; type: ADME, organism-based; parameters: route oral, time infinity, dose 10 mg/kg; settings: in vivo
[3] = Induction of cell cycle arrest in human MOLM16 cells assessed as accumulation at S phase at 1 uM incubated for 24 hrs by propidium iodide /RNase staining based flow cytometry(Rvb =31.8 %); type: functional, MOLM-16
[4] = Acute toxicity in ICR mouse assessed as damage in kidney at 90 mg/kg, po measured after 7 days by H&E staining based immunohistochemistry; type: organism-based; settings: in vivo, 168 h, time 7 day
[5] = Acute toxicity in ICR mouse assessed as damage in heart at 90 mg/kg, po measured after 7 days by H&E staining based immunohistochemistry; type: organism-based; settings: in vivo, 168 h, time 7 day
[6] = Induction of apoptosis in human MOLM16 cells assessed as necrotic cells at 2 uM incubated for 48 hrs by Annexin V and propidium iodide Staining based assay (reference value: 0.44 %); type: functional, MOLM-16
[7] = Antiproliferative activity against human MOLM16 cells assessed as reduction in cell viability measured after 48 hrs by CCK8 assay; type: functional, cell-based, MOLM-16; settings: MOLM16, 48 h
[8] = Acute toxicity in ICR mouse assessed as survival at 90 mg/kg, po administered for 7 days and observed for 7 days; type: organism-based; settings: in vivo, 168 h, time 7 day
[9] = Induction of cell cycle arrest in human MOLM16 cells assessed as accumulation at G2 phase at 1 uM incubated for 24 hrs by propidium iodide /RNase staining based flow cytometry(Rvb =14.7 %); type: functional, MOLM-16
[10] = Induction of cell cycle arrest in human MOLM16 cells assessed as accumulation at subG1 phase at 1 uM incubated for 24 hrs by propidium iodide /RNase staining based flow cytometry(Rvb =4.02 %); type: functional, MOLM-16
EOL1 = test: Antiproliferative activity against human EOL1 cells assessed as reduction in cell viability measured after 48 hrs by CCK8 assay; type: functional, cell-based; settings: EOL1, 48 h
HL-60 = test: Antiproliferative activity against human HL-60 cells assessed as reduction in cell viability measured after 48 hrs by CCK8 assay; type: functional, cell-based; settings: HL-60, 48 h
KG-1 = test: Antiproliferative activity against human KG-1 cells assessed as reduction in cell viability measured after 48 hrs by CCK8 assay; type: functional, cell-based; settings: KG-1, 48 h
[11] = Induction of cell cycle arrest in human MOLM16 cells assessed as accumulation at G2 phase at 5 uM incubated for 24 hrs by propidium iodide /RNase staining based flow cytometry(Rvb =14.7 %); type: functional, MOLM-16
[12] = Induction of cell cycle arrest in human MOLM16 cells assessed as accumulation at S phase at 2 uM incubated for 24 hrs by propidium iodide /RNase staining based flow cytometry(Rvb =31.8 %); type: functional, MOLM-16
[13] = Induction of apoptosis in human MOLM16 cells assessed as viable cells at 1 uM incubated for 48 hrs by Annexin V and propidium iodide Staining based assay (reference value: 76.3 %); type: functional, MOLM-16; settings: read-out: Activity
[14] = Induction of apoptosis in human MOLM16 cells assessed as early apoptotic cells at 1 uM incubated for 48 hrs by Annexin V and propidium iodide Staining based assay (reference value: 16.4 %); type: functional, MOLM-16
[15] = Induction of apoptosis in human MOLM16 cells assessed as viable cells at 2 uM incubated for 48 hrs by Annexin V and propidium iodide Staining based assay (reference value: 76.3 %); type: functional, MOLM-16; settings: read-out: Activity
[16] = Induction of cell cycle arrest in human MOLM16 cells assessed as accumulation at S phase at 5 uM incubated for 24 hrs by propidium iodide /RNase staining based flow cytometry(Rvb =31.8 %); type: functional, MOLM-16
[17] = Half life in Sprague-Dawley rat at 2 mg/kg, iv; type: ADME, organism-based; settings: in vivo
[18] = Antiproliferative activity against p110 unexpressed human MM1.R cells assessed as reduction in cell viability measured after 48 hrs by CCK8 assay; type: functional; settings: MM.1R
[19] = Induction of cell cycle arrest in human MOLM16 cells assessed as accumulation at G2 phase at 2 uM incubated for 24 hrs by propidium iodide /RNase staining based flow cytometry(Rvb =14.7 %); type: functional, MOLM-16
[20] = Acute toxicity in ICR mouse assessed as behavioral changes at 90 mg/kg, po administered for 7 days and observed for 7 days; type: organism-based; settings: in vivo, 168 h, time 7 day
[21] = Induction of cell cycle arrest in human MOLM16 cells assessed as accumulation at G1 phase at 2 uM incubated for 24 hrs by propidium iodide /RNase staining based flow cytometry(Rvb =46.8 %); type: functional, MOLM-16
[22] = MRT (0 to infinity) in Sprague-Dawley rat at 2 mg/kg, iv; type: ADME, organism-based; settings: in vivo
[23] = Induction of apoptosis in human MOLM16 cells assessed as early apoptotic cells at 2 uM incubated for 48 hrs by Annexin V and propidium iodide Staining based assay (reference value: 16.4 %); type: functional, MOLM-16
[24] = Half life in Sprague-Dawley rat at 10 mg/kg, po; type: ADME, organism-based; settings: in vivo
[25] = Antitumor activity against human MOLM16 cells xenografted in BALB/c mouse assessed as tumor growth inhibition at 20 mg/kg, po administered daily for 14 days; type: functional, MOLM-16; settings: 336 h, time 14 day, read-out: TGI
[26] = Induction of apoptosis in human MOLM16 cells assessed as late apoptotic cells at 1 uM incubated for 48 hrs by Annexin V and propidium iodide Staining based assay (reference value: 6.77 %); type: functional, MOLM-16
[27] = Induction of apoptosis in human MOLM16 cells assessed as necrotic cells at 1 uM incubated for 48 hrs by Annexin V and propidium iodide Staining based assay (reference value: 0.44 %); type: functional, MOLM-16
[28] = Induction of cell cycle arrest in human MOLM16 cells assessed as accumulation at subG1 phase at 2 uM incubated for 24 hrs by propidium iodide /RNase staining based flow cytometry(Rvb =4.02 %); type: functional, MOLM-16
[29] = Acute toxicity in ICR mouse assessed as damage in liver at 90 mg/kg, po measured after 7 days by H&E staining based immunohistochemistry; type: organism-based; settings: in vivo, 168 h, time 7 day
[30] = Induction of apoptosis in human MOLM16 cells assessed as early apoptotic cells at 5 uM incubated for 48 hrs by Annexin V and propidium iodide Staining based assay (reference value: 16.4 %); type: functional, MOLM-16
[31] = Volume of distribution in steady state in Sprague-Dawley rat at 2 mg/kg, iv; type: ADME, organism-based; settings: in vivo
[32] = AUC (0 to t) in Sprague-Dawley rat at 2 mg/kg, iv; type: ADME, organism-based; parameters: dose 2 mg/kg; settings: in vivo
[33] = Antitumor activity against human MOLM16 cells xenografted in BALB/c mouse assessed as tumor growth inhibition at 40 mg/kg, po administered daily for 14 days; type: functional, MOLM-16; settings: 336 h, time 14 day, read-out: TGI
[34] = Induction of apoptosis in human MOLM16 cells assessed as late apoptotic cells at 2 uM incubated for 48 hrs by Annexin V and propidium iodide Staining based assay (reference value: 6.77 %); type: functional, MOLM-16
[35] = Tmax in Sprague-Dawley rat at 10 mg/kg, po; type: ADME, organism-based; settings: in vivo
[36] = Oral bioavailability in Sprague-Dawley rat at 10 mg/kg; type: ADME, organism-based; settings: in vivo
[37] = Cmax in Sprague-Dawley rat at 10 mg/kg, po; type: ADME, organism-based; parameters: route oral, dose 10 mg/kg; settings: in vivo
[38] = Induction of apoptosis in human MOLM16 cells assessed as necrotic cells at 5 uM incubated for 48 hrs by Annexin V and propidium iodide Staining based assay (reference value: 0.44 %); type: functional, MOLM-16
[39] = Induction of apoptosis in human MOLM16 cells assessed as late apoptotic cells at 5 uM incubated for 48 hrs by Annexin V and propidium iodide Staining based assay (reference value: 6.77 %); type: functional, MOLM-16
[40] = Induction of apoptosis in human MOLM16 cells assessed as viable cells at 5 uM incubated for 48 hrs by Annexin V and propidium iodide Staining based assay (reference value: 76.3 %); type: functional, MOLM-16; settings: read-out: Activity
[41] = Toxicity in BALB/c nude mouse xenografted with human MOLM16 cells assessed as change in body weight at 20 to 40 mg/kg, po administered once daily for 14 days; type: organism-based; settings: in vivo, 336 h, dose 20-40 mg/kg, time 14 day
[42] = Induction of cell cycle arrest in human MOLM16 cells assessed as accumulation at subG1 phase at 5 uM incubated for 24 hrs by propidium iodide /RNase staining based flow cytometry(Rvb =4.02 %); type: functional, MOLM-16
[43] = Induction of cell cycle arrest in human MOLM16 cells assessed as accumulation at G1 phase at 5 uM incubated for 24 hrs by propidium iodide /RNase staining based flow cytometry(Rvb =46.8 %); type: functional, MOLM-16
[44] = AUC (0 to infinity) in Sprague-Dawley rat at 2 mg/kg, iv; type: ADME, organism-based; parameters: time infinity, route intravenous, dose 2 mg/kg; settings: in vivo
[45] = Induction of cell cycle arrest in human MOLM16 cells assessed as accumulation at G1 phase at 1 uM incubated for 24 hrs by propidium iodide /RNase staining based flow cytometry(Rvb =46.8 %); type: functional, MOLM-16
[46] = AUC (0 to t) in Sprague-Dawley rat at 10 mg/kg, po; type: ADME, organism-based; parameters: dose 10 mg/kg; settings: in vivo
[47] = Acute toxicity in ICR mouse assessed as damage in spleen at 90 mg/kg, po measured after 7 days by H&E staining based immunohistochemistry; type: organism-based; settings: in vivo, 168 h, time 7 day

SMILES: O=S(=O)(Nc1cc(-c2cnc3[nH]ncc3c2)cnc1Cl)c1ccccc1
- Activity [1]: Non-Toxic
- AUC(0-inf) [2]: 9220 ng·h/mL
- Activity [3]: 31.1%
- Activity [4]: Non-Toxic
- Activity [5]: Non-Toxic
- Activity [6]: 1.47%
- pIC50 [7]: 6.06
- Activity [8]: Non-Toxic
- Activity [9]: 11.8%
- Activity [10]: 3.5%
- pIC50 (EOL1): 5.55
- pIC50 (HL-60): 5.65
- pIC50 (KG-1): 5.24
- Activity [11]: 8.07%
- Activity [12]: 28.6%
- viability at 1 µM [13]: 69.8%
- Activity [14]: 16%
- viability at 2 µM [15]: 57.8%
- Activity [16]: 30.1%
- half-life [17]: 461 min
- pIC50 [18]: 4.64
- Activity [19]: 10.8%
- Activity [20]: Non-Toxic
- Activity [21]: 56.7%
- MRT [22]: 3.12 h
- Activity [23]: 24.6%
- half-life [24]: 224 min
- inhibition in vivo at 20 mg/kg [25]: 31%
- Activity [26]: 13.6%
- Activity [27]: 1.6%
- Activity [28]: 3.27%
- Activity [29]: Non-Toxic
- Activity [30]: 46.1%
- Vdss [31]: 2.12 L/kg
- AUC(0-t) [32]: 10200 ng·h/mL
- inhibition in vivo at 40 mg/kg [33]: 49%
- Activity [34]: 16.1%
- Tmax [35]: 4 h
- bioavailability [36]: 17.6%
- Cmax [37]: 1100 ng/mL
- Activity [38]: 0.6%
- Activity [39]: 42.6%
- viability at 5 µM [40]: 10.7%
- Activity [41]: Non-Toxic
- Activity [42]: 11.1%
- Activity [43]: 49.2%
- AUC(0-inf) [44]: 10500 ng·h/mL
- Activity [45]: 54.9%
- AUC(0-t) [46]: 9040 ng·h/mL
- Activity [47]: Non-Toxic
